Results from patent US4130709A, “Pleuromutilin glycoside derivatives” (Eli Lilly and Company, priority 1977, dated 1978).
Values after ≈ are worked out from the molar mass of the structure shown. Like-named read-outs stand apart in the source and are kept apart here.

Tests used:
[1] = tested on: Staphylococcus aureus (H-Heatley) NRRL B-314; experiment: in vitro turbidometric assay (Autoturb Microbiological Assay System) against Staphylococcus aureus; type: cell-based; conditions: nutrient broth pH 7, approximately 4 hours at 37° C., A-40104 factor A as standard
Experimental: The compounds are conveniently tested against a typical gram-positive organism, Staphylococcus aureus, using a turbidometric assay on a semi-automated system (Autoturb Microbiological Assay System, Elanco) described by N. R. Kuzel and F. W. Kavanagh in J. Pharmaceut. Sci, 60 (5), 764 and 767 (1971). In testing these compounds, the following parameters were used: Staphylococcus aureus (H-Heatley) NRRL B-314 in a nutrient broth medium (pH 7), incubated for approximately 4 hours at 37° C. Test samples and A-40104 factor A, which is used as a standard, were dissolved in water. The standard was presented to the Autoturb carrousel at concentrations of 1.25, 2.50, 3.75, 5.00 and 6.25 mcg/ml. Test compounds were diluted to contain approximately 2.5 to 5.0 mcg of activity per ml, as presented to the carrousel. The units of activity of some of the typical compounds of this invention (R^2 =H in group tested) in this in vitro assay are summarized in Table I

[2] = tested on: Actinomyces israelii; experiment: standard agar-dilution test, anaerobic bacteria; type: cell-based; conditions: 24-hour incubation
[3] = tested on: Clostridium perfringens; experiment: microbe, parasite or virus in culture; type: cell-based; conditions: 24 h
[4] = tested on: Bacteroides thetaiotaomicron; experiment: standard agar-dilution test, anaerobic bacteria; type: cell-based; conditions: 24-hour incubation
Experimental: (§1) Table IV summarizes the activity of typical compounds of this invention, as determined by the standard agar-dilution test.
(§2) *Endpoint read after 24-hour incubation

[5] = tested on: Clostridium septicum; experiment: standard agar-dilution test, anaerobic bacteria; type: cell-based; conditions: 24-hour incubation
Experimental: as §1, §2

[6] = tested on: Eubacterium aerofaciens; experiment: standard agar-dilution test, anaerobic bacteria; type: cell-based; conditions: Collinsella aerofaciens
[7] = tested on: Peptococcus asaccharolyticus; experiment: standard agar-dilution test, anaerobic bacteria; type: cell-based; conditions: Peptoniphilus asaccharolyticus, 24-hour incubation
[8] = tested on: Peptococcus prevoti; experiment: standard agar-dilution test, anaerobic bacteria; type: cell-based
[9] = tested on: Peptostreptococcus anaerobius; experiment: standard agar-dilution test, anaerobic bacteria; type: cell-based; conditions: 24-hour incubation
[10] = tested on: Peptostreptococcus intermedius; experiment: standard agar-dilution test, anaerobic bacteria; type: cell-based
[11] = tested on: Bacteroides fragilis 111; experiment: standard agar-dilution test, anaerobic bacteria; type: cell-based
[12] = tested on: Bacteroides fragilis 1877; experiment: standard agar-dilution test, anaerobic bacteria; type: cell-based
[13] = tested on: Bacteroides fragilis 1936B; experiment: standard agar-dilution test, anaerobic bacteria; type: cell-based
[14] = tested on: Bacteroides melaninogenicus 1856/28; experiment: standard agar-dilution test, anaerobic bacteria; type: cell-based; conditions: Prevotella intermedia
[15] = tested on: Bacteroides melaninogenicus 2736; experiment: standard agar-dilution test, anaerobic bacteria; type: cell-based
[16] = tested on: Bacteroides vulgatis; experiment: standard agar-dilution test, anaerobic bacteria; type: cell-based
[17] = tested on: Bacteroides corrodens; experiment: standard agar-dilution test, anaerobic bacteria; type: cell-based; conditions: Eikenella corrodens
[18] = tested on: Fusobacterium symbiosum; experiment: standard agar-dilution test, anaerobic bacteria; type: cell-based
[19] = tested on: Fusobacterium necrophorum; experiment: standard agar-dilution test, anaerobic bacteria; type: cell-based
[20] = tested on: Mycoplasma gallisepticum; experiment: in vitro broth-dilution studies, mycoplasma; type: cell-based; conditions: Mycoplasmoides gallisepticum
Text: (§3) The minimal inhibitory concentrations (MIC's) of a number of typical compounds of the present invention (R^2 =H in group tested) against various mycoplasma species, as determined by in vitro broth-dilution studies, are summarized in Table V.

[21] = tested on: Mycoplasma hyopneumoniae; experiment: in vitro broth-dilution studies, mycoplasma; type: cell-based; conditions: Mesomycoplasma hyopneumoniae
Text: as §3

[22] = tested on: Mycoplasma hyorhinis; experiment: in vitro broth-dilution studies, mycoplasma; type: cell-based
Text: as §3

[23] = tested on: Mycoplasma synoviae; experiment: in vitro broth-dilution studies, mycoplasma; type: cell-based; conditions: Mycoplasmopsis synoviae
Text: as §3

[24] = tested on: Pasteurella multocida (bovine); experiment: in vitro activity against Pasteurella multocida (bovine); type: cell-based
Text: (§4) The activity of representative compounds of this invention (R^2 =H in group tested) against P. multocida and the Pseudomonas sp. is summarized in Table VI.

[25] = tested on: Pasteurella multocida (turkey); experiment: in vitro activity against Pasteurella multocida (turkey); type: cell-based
Text: as §4

[26] = tested on: Pseudomonas sp. (fish); experiment: in vitro activity against Pseudomonas sp. (fish); type: cell-based
Text: P. multocida, for example, is a causative agent of respiratory infection in cattle, poultry and swine. P. hemolytica is a major cause of respiratory disease in cattle. The activity of representative compounds of this invention (R^2 =H in group tested) against P. multocida and the Pseudomonas sp. is summarized in Table VI.

[27] = tested on: Spiroplasma citri; experiment: in vitro inhibition of Spiroplasma citri measured by a color reaction; type: cell-based; set-up: key to Activity (color reaction): Red (R) includes complete inhibition; red-orange (RO) indicates partial inhibition; yellow (Y) indicates no inhibition
Experimental: In another important aspect, the compounds of this invention are active against Spiroplasmas. Spiroplasma citri is the causative agent of citrus-stubborn disease; another Spiroplasma, corn-stunt Spiroplasma, affects the growth of corn. Table VII summarizes the in vitro activity of representative compounds of the present invention (R^2 =H in this group) against Spiroplasma citri. In this test, inhibition of S. citri is measured by a color reaction. Red (R) includes complete inhibition; red-orange (RO) indicates partial inhibition; and yellow (Y) indicates no inhibition.

[28] = toxicity (LD50) on intraperitoneal injection in mice; conditions: mouse, in vivo, ip; intraperitoneal injection, mice
[29] = Peptococcus prevoti, 24-hour incubation, read-out: MIC
[30] = 24-hour incubation, read-out: MIC
[31] = Bacteroides fragilis, 111, 24 h
[32] = Bacteroides fragilis, 1877, 24 h
[33] = Bacteroides fragilis, 1936B, 24 h

SMILES	Units of Activity [1]	MIC [2]	MIC [3]	MIC [4]	MIC [5]	MIC [7]	MIC [8, 29]	MIC [9]	MIC [19, 30]	MIC [20]	MIC [21]	MIC [22]	MIC [23]	Activity (color reaction) ([27]; 0.1 ppm)	Activity (color reaction) ([27]; 1.0 ppm)	MIC ([6]; 24 h)	MIC ([10]; Peptostreptococcus, 24 h)	MIC [11, 31]	MIC [12, 32]	MIC [13, 33]	further results
CC[C@]1(C)C[C@@H](OC(=O)CS[C@@H]2OC[C@@H](OC(C)=O)[C@H](OC(C)=O)[C@H]2OC(C)=O)[C@]2(C)[C@H](C)CC[C@]3(CCC(=O)[C@H]32)[C@@H](C)[C@@H]1O [Compound 6, 14-deoxy-14-[(2,3,4-tri-O-acetyl-β-D-xylopyranosyl)thioacetoxy]-19,20-dihydromutilin]	746 to 883 µg/mg	2 µg/mL (≈ 3.05 µM)	> 128 µg/mL	8 µg/mL (≈ 12.2 µM)	1 µg/mL (≈ 1.53 µM)	4 µg/mL (≈ 6.11 µM)	2 µg/mL (≈ 3.05 µM)	≤ 0.5 µg/mL	4 µg/mL (≈ 6.11 µM)	0.78 µg/mL (≈ 1.19 µM)	≤ 0.15 µg/mL	0.39 µg/mL (≈ 0.596 µM)	0.78 µg/mL (≈ 1.19 µM)	R	R						MIC ([6]; Eubacterium aerofaciens, 24-hour incubation, read-out: MIC): 16 µg/mL (≈ 24.4 µM); MIC ([10]; Peptostreptococcus intermedius, 24-hour incubation, read-out: MIC): 4 µg/mL (≈ 6.11 µM); MIC ([11]; Bacteroides fragilis 111, 24-hour incubation, read-out: MIC): 2 µg/mL (≈ 3.05 µM); MIC ([12]; Bacteroides fragilis 1877, 24-hour incubation, read-out: MIC): 2 µg/mL (≈ 3.05 µM); MIC ([13]; Bacteroides fragilis 1936B, 24-hour incubation, read-out: MIC): 8 µg/mL (≈ 12.2 µM); MIC ([14]; Bacteroides melaninogenicus 1856/28, 24-hour incubation, read-out: MIC): 2 µg/mL (≈ 3.05 µM); MIC ([15]; Bacteroides melaninogenicus 2736, 24-hour incubation, read-out: MIC): 4 µg/mL (≈ 6.11 µM); MIC ([16]; Bacteroides vulgatis, 24-hour incubation, read-out: MIC): 4 µg/mL (≈ 6.11 µM); MIC ([17]; Bacteroides corrodens, 24-hour incubation, read-out: MIC): 4 µg/mL (≈ 6.11 µM); MIC ([18]; Fusobacterium symbiosum, 24-hour incubation, read-out: MIC): 4 µg/mL (≈ 6.11 µM); MIC [24]: < 50 µg/mL; MIC [25]: < 50 µg/mL; MIC [26]: 12.5 µg/mL (≈ 19.1 µM); Activity (color reaction) ([27]; 0.01 ppm): RO; Activity (color reaction) ([27]; 0.05 ppm): R
CC[C@]1(C)C[C@@H](OC(=O)CO[C@H]2O[C@H](COC(C)=O)[C@@H](OC(C)=O)[C@H](OC(C)=O)C2=NO)[C@]2(C)[C@H](C)CC[C@]3(CCC(=O)[C@H]32)[C@@H](C)[C@@H]1O [Compound 8, 14-deoxy-14-[(2-deoxy-2-(hydroxyimino)-3,4,6-tri-O-acetyl-α-D-glucopyranosyl)oxyacetoxy]-19,20-dihydromutilin]		8 µg/mL (≈ 11.7 µM)	> 128 µg/mL	> 128 µg/mL	> 128 µg/mL	8 µg/mL (≈ 11.7 µM)		64 µg/mL (≈ 93.9 µM)		3.12 µg/mL (≈ 4.58 µM)		6.25 µg/mL (≈ 9.17 µM)	6.25 µg/mL (≈ 9.17 µM)	Y	R	> 128 µg/mL	> 128 µg/mL	> 128 µg/mL	> 128 µg/mL	> 128 µg/mL	LD50 [28]: > 300 mg/kg; MIC ([8]; 24 h): > 128 µg/mL; MIC ([14]; 1856/28, 24 h): > 128 µg/mL; MIC ([15]; 2736, 24 h): > 128 µg/mL; MIC ([16]; Bacteroides, 24 h): > 128 µg/mL; MIC ([17]; 24 h): > 128 µg/mL; MIC ([18]; Fusobacterium, 24 h): > 128 µg/mL; MIC ([19]; 24 h): > 128 µg/mL
C=C[C@]1(C)C[C@@H](OC(=O)CO[C@H]2O[C@H](COC(C)=O)[C@H](OC(C)=O)[C@H](OC(C)=O)C2=NO)[C@]2(C)[C@H](C)CC[C@]3(CCC(=O)[C@H]32)[C@@H](C)[C@@H]1O [Compound 9, 14-deoxy-14-[(2-deoxy-2-(hydroxyimino)-3,4,6-tri-O-acetyl-α-D-galactopyranosyl)oxyacetoxy]mutilin]	53 to 54 µg/mg	1 µg/mL (≈ 1.47 µM)	> 128 µg/mL	> 128 µg/mL	> 128 µg/mL	16 µg/mL (≈ 23.5 µM)	16 µg/mL (≈ 23.5 µM)	2 µg/mL (≈ 2.94 µM)	64 µg/mL (≈ 94.2 µM)	< 0.78 µg/mL	0.78 µg/mL (≈ 1.15 µM)	1.56 µg/mL (≈ 2.29 µM)	< 0.78 µg/mL			> 128 µg/mL	> 128 µg/mL	> 128 µg/mL	> 128 µg/mL	> 128 µg/mL	MIC ([14]; 1856/28, 24 h): > 128 µg/mL; MIC ([15]; 2736, 24 h): > 128 µg/mL; MIC ([16]; Bacteroides, 24 h): > 128 µg/mL; MIC ([17]; 24 h): > 128 µg/mL; MIC ([18]; Fusobacterium, 24 h): > 128 µg/mL
